Measured values as given in ChEMBL document CHEMBL3508140 (2016).
Values belong to the compound of their own block, whether it stands above or below them.

What was measured:
[1] = AUC values (0-48 h) of 7-deoxydoxorubicin aglycone in plasma following single intravenous doxorubicin at 10 mg.Kg-1 dose in female mouse bearing colon tumor; assay type: ADME, organism-based, BALB/c; set-up: time < 48 hr, dose 10 mg.Kg-1, dosed compound id 2.46809e+06, dosed compound name Doxorubicin, gender F, regimen Single, route intravenous, sampling time 48 h; conditions: in vivo
[2] = Detection of 7-deoxy doxorubicin-aglycone in heart following single intravenous doxorubicin at 10 mg.Kg-1 dose in female mouse bearing colon tumor; assay type: ADME, organism-based, BALB/c; set-up: dose 10 mg.Kg-1, dosed compound id 2.46809e+06, dosed compound name Doxorubicin, gender F, regimen Single, route intravenous, sampling time 48 h; conditions: in vivo
[3] = Detection of 7-deoxy doxorubicin-aglycone in plasma following single intravenous doxorubicin at 10 mg.Kg-1 dose in female mouse bearing colon tumor; assay type: ADME, organism-based, BALB/c; set-up: dose 10 mg.Kg-1, dosed compound id 2.46809e+06, dosed compound name Doxorubicin, gender F, regimen Single, route intravenous, sampling time 48 h; conditions: in vivo
[4] = Detection of 7-deoxy epirubicin-aglycone in plasma following single intravenous epirubicin at 10 mg.Kg-1 dose in female mouse bearing colon tumor; assay type: ADME, organism-based, BALB/c; conditions: in vivo
[5] = AUC values (0-48 h) of 7-deoxydoxorubicin aglycone in tumor following single intravenous doxorubicin at 10 mg.Kg-1 dose in female mouse bearing colon tumor; assay type: ADME, organism-based, BALB/c, Neoplasm; set-up: time < 48 hr, dose 10 mg.Kg-1, dosed compound id 2.46809e+06, dosed compound name Doxorubicin, gender F, regimen Single, route intravenous, sampling time 48 h; conditions: in vivo
[6] = Detection of 7-deoxy doxorubicin-aglycone in tumor following single intravenous doxorubicin at 10 mg.Kg-1 dose in female mouse bearing colon tumor; assay type: ADME, organism-based, BALB/c, Neoplasm; set-up: dose 10 mg.Kg-1, dosed compound id 2.46809e+06, dosed compound name Doxorubicin, gender F, regimen Single, route intravenous, sampling time 48 h; conditions: in vivo
[7] = Detection of 7-deoxy epirubicin-aglycone in tumor following single intravenous epirubicin at 10 mg.Kg-1 dose in female mouse bearing colon tumor; assay type: ADME, organism-based, BALB/c, Neoplasm; conditions: in vivo
[8] = AUC values (0-48 h) of 7-deoxydoxorubicin aglycone in plasma following single intravenous epirubicin at 10 mg.Kg-1 dose in female mouse bearing colon tumor; assay type: ADME, organism-based, BALB/c; conditions: in vivo
[9] = AUC values (0-48 h) of 7-deoxydoxorubicin aglycone in heart following single intravenous epirubicin at 10 mg.Kg-1 dose in female mouse bearing colon tumor; assay type: ADME, organism-based, BALB/c; conditions: in vivo
[10] = Recovery of 7-deoxy doxorubicin-aglycone following intravenous epirubicin at 4 mg.Kg-1 dose in rat; assay type: ADME, organism-based, SD, Plasma; conditions: in vivo
[11] = Recovery of 7-deoxy doxorubicin-aglycone following intravenous epirubicin at 1.5 mg.Kg-1 dose in man; assay type: ADME, organism-based, Plasma; conditions: human, in vivo
[12] = Recovery of 7-deoxy doxorubicin-aglycone following intraperitoneal epirubicin at 4 mg.Kg-1 dose in hamster; assay type: ADME, organism-based, Cricetulus griseus, Plasma; conditions: chinese hamster, in vivo, ip
[13] = AUC values (0-48 h) of 7-deoxydoxorubicin aglycone in heart following single intravenous doxorubicin at 10 mg.Kg-1 dose in female mouse bearing colon tumor; assay type: ADME, organism-based, BALB/c; set-up: time < 48 hr, dose 10 mg.Kg-1, dosed compound id 2.46809e+06, dosed compound name Doxorubicin, gender F, regimen Single, route intravenous, sampling time 48 h; conditions: in vivo
[14] = Detection of 7-deoxy epirubicin-aglycone in heart following single intravenous epirubicin at 10 mg.Kg-1 dose in female mouse bearing colon tumor; assay type: ADME, organism-based, BALB/c; conditions: in vivo
[15] = AUC values (0-48 h) of 7-deoxydoxorubicin aglycone in tumor following single intravenous epirubicin at 10 mg.Kg-1 dose in female mouse bearing colon tumor; assay type: ADME, organism-based, BALB/c, Neoplasm; conditions: in vivo
[16] = Recovery of 7-deoxy doxorubicin-aglycone following intravenous epirubicin at 4 mg.Kg-1 dose in rabbit; assay type: ADME, organism-based, Oryctolagus cuniculus, New Zealand White, Plasma; conditions: in vivo
[17] = Recovery of 7-deoxy doxorubicin-aglycone following intraperitoneal epirubicin at 4 mg.Kg-1 dose in mouse; assay type: ADME, organism-based, CD-1, Plasma; conditions: in vivo, ip
[18] = Mean terminal half-life for ADR-529 following intravenous epirubicin at 0.5 mg.Kg-1 dose administered approximately 25 minute prior to epirubicin once weekly for four weeks in dog; assay type: ADME, organism-based, Canis lupus familiaris; conditions: Beagle, plasma
[19] = AUC (2-8 h) of ADR-529 following intravenous ADR-529 at 20 mg.Kg-1 dose administered approximately 25 minute prior to epirubicin once weekly for four weeks in dog; assay type: ADME, organism-based, Canis lupus familiaris; set-up: dose 20 mgKg-1, dosed compound id 2.4681e+06, dosed compound name Dexrazoxane, dose level High, route intravenous, sampling time 8 h, study doses 5/10/20 mgKg-1; conditions: Beagle, plasma
[20] = Mean terminal half-life for ADR-529 following intravenous epirubicin at 1 mg.Kg-1 dose administered approximately 25 minute prior to epirubicin once weekly for four weeks in dog; assay type: ADME, organism-based, Canis lupus familiaris; conditions: Beagle, plasma
[21] = AUC (2-8 h) of ADR-529 following intravenous ADR-529 at 10 mg.Kg-1 dose administered approximately 25 minute prior to epirubicin once weekly for four weeks in dog; assay type: ADME, organism-based, Canis lupus familiaris; set-up: dose 10 mgKg-1, dosed compound id 2.4681e+06, dosed compound name Dexrazoxane, dose level Intermediate, route intravenous, sampling time 8 h, study doses 5/10/20 mgKg-1; conditions: Beagle, plasma
[22] = Plasma clearance of carminomycin following intravenous carminomycin at 1.0 mg.Kg-1 dose in dog; assay type: ADME, organism-based, Canis lupus familiaris; set-up: dose 1 mg.Kg-1, dosed compound id 2.46809e+06, dosed compound name Carminomycin, route intravenous; conditions: Beagle, read-out: Clp
[23] = Volume of distribution of carminomycin following intravenous carminomycin at 1.0 mg.Kg-1 dose in dog; assay type: ADME, organism-based, Canis lupus familiaris; set-up: dose 1 mg.Kg-1, dosed compound id 2.46809e+06, dosed compound name Carminomycin, route intravenous; conditions: Beagle, plasma
[24] = Terminal half-life of carminomycin following intravenous carminomycin at 1.0 mg.Kg-1 dose in dog; assay type: ADME, organism-based, Canis lupus familiaris; set-up: dose 1 mg.Kg-1, dosed compound id 2.46809e+06, dosed compound name Carminomycin, route intravenous; conditions: Beagle, plasma

AUC [1]: 4.1 nmol·min/mL
Compound recovery [2]: OUTCOME = Observed
Compound recovery [3]: OUTCOME = Observed
Compound recovery [4]: OUTCOME = Observed
AUC [5]: 135 nmol·min/g
Compound recovery [6]: OUTCOME = Observed
Compound recovery [7]: OUTCOME = Observed
AUC [8]: 1.6 nmol·min/mL
AUC [9]: 49 nmol·min/g
Compound recovery [10]: 0 10^-9M
Compound recovery [11]: 14 10^-9M
Compound recovery [12]: 1.3 10^-9M
AUC [13]: 152 nmol·min/g
Compound recovery [14]: OUTCOME = Observed
AUC [15]: 11 nmol·min/g
Compound recovery [16]: 0 10^-9M
Compound recovery [17]: 0 10^-9M
SMILES: COc1cccc2c1C(=O)c1c(O)c3c(c(O)c1C2=O)C[C@@](O)(C(=O)CO)CC3

half-life [18]: 1.8 h
AUC [19]: 5570 ng·h/mL
half-life [20]: 1.2 h
AUC [21]: 2710 ng·h/mL
SMILES: C[C@@H](CN1CC(=O)NC(=O)C1)N1CC(=O)NC(=O)C1 [DEXRAZOXANE]

SMILES: CC(=O)[C@]1(O)Cc2c(O)c3c(c(O)c2[C@@H](O[C@H]2C[C@H](N)[C@H](O)[C@H](C)O2)C1)C(=O)c1c(O)cccc1C3=O [CARUBICIN]
clearance [22]: 1360 mL/min
Vd [23]: 98.5 L/kg
half-life [24]: 0.338 h
